This experiment deals with Induced myeloid leukemia cell differentiation protein Mcl-1 (Homo sapiens) (UniProt Q07820). Description: blockers of Bid binding to Mcl-1 – biochemical, TR-FRET, dose response (AID 1418). The conditions noted are these: Mcl-1/Bid peptide binding, TR-FRET (europium/Dy647), 2 hr. For orientation: TR-FRET usually uses a lanthanide donor and a delayed reading to cut background.

The source made the active and inactive calls. No rule for the calls is given here. A value given as a limit tells only on which side of the number the result lay.

Chain of Induced myeloid leukemia cell differentiation protein Mcl-1 (Homo sapiens) (Q07820 whole entry, looked up): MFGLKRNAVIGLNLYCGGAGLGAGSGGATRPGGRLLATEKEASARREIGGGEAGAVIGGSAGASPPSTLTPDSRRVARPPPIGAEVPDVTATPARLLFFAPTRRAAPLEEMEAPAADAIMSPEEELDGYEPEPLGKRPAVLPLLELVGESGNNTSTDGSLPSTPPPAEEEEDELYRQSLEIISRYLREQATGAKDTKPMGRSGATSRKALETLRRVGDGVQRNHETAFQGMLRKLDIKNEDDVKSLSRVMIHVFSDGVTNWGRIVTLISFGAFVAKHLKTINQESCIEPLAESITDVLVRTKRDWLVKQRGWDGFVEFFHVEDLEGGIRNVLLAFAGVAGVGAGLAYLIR

`O=C(Nc1ccc(Nc2ccncc2)cc1)c1ccc(Nc2ccnc3ccc([N+](=O)[O-])cc23)cc1[N+](=O)[O-]`: the half-inhibitory concentration (IC50) was 1.38 µM.

Turning to `S=C(NCc1ccc(Cl)cc1)NC1CCN(Cc2ccccc2)CC1`, the IC50 was > 54 µM (inactive).

Turning to `O=S(=O)(Nc1cccc(-c2cn3ccsc3n2)c1)c1ccc(F)cc1`, the IC50 was > 54 µM (inactive).

`Cc1cc(=O)[nH]c(SCC(=O)c2ccc3c(c2)NC(=O)CO3)n1`: the IC50 is > 54 µM (inactive).

For the compound `C=CCn1c(O)c(N=NC(=O)CNC(=O)/C=C/c2ccc(OC)cc2)c2ccccc21`, the IC50 was > 54 µM (inactive).

As for `O=C(O)c1cccc(-n2cccc2/C=C2/NC(=O)N(c3ccc(Cl)cc3)C2=O)c1`, the IC50 is 0.53 µM.

On to `COc1ccc(Cc2nnc(NC(=O)Cc3cccs3)s2)cc1OC`, for which the IC50 was > 54 µM (inactive).

Turning to `COc1ccc(C(=O)/C=C/c2ccc(N3CCCCC3)c([N+](=O)[O-])c2)cc1`, the IC50 was > 54 µM (inactive).

`CCCCN(C)C(=O)c1coc(=O)c2ccccc12`: the IC50 is > 54 µM (inactive).

With `CN(C)S(=O)(=O)c1cccc(NC(=O)COC(=O)c2cc3ccccc3oc2=O)c1`, the IC50 was > 54 µM (inactive).

On to `O=C(Cn1nc(C(F)(F)F)c2c1CCCC2)NCc1ccco1`, for which the IC50 was > 54 µM (inactive).

In the case of `CCOc1ccc(-c2ccc(/C=C3/C(=N)N4C(C)=CSC4=NC3=O)o2)c([N+](=O)[O-])c1`, the IC50 is 0.83 µM.

Consider `O=C(Cc1ccccc1)Nc1scc(-c2ccccc2)c1C(=O)N1CCOCC1`, for which the IC50 is > 54 µM (inactive).

For `Cc1ccc(N2CCN(C3=NC(=O)/C(=C\c4cccs4)S3)CC2)cc1`, the IC50 was > 54 µM (inactive).

Consider `COc1cccc(OC)c1C(=O)Nc1ccccc1C(=O)N1CCOCC1`, for which the IC50 is > 54 µM (inactive).

Take `CC(=O)c1ccc(Oc2ccc(C(C)=O)cc2)cc1`: the IC50 is > 54 µM (inactive).

As to `CCOc1cc(N2CCOCC2)c(OCC)cc1NC(=O)CCS(=O)(=O)c1ccc(Cl)cc1`, the IC50 is > 54 µM (inactive).

Turning to `O=C(CN1C(=O)c2cccc3cccc1c23)Nc1ccc(S(=O)(=O)N2CCOCC2)cc1`, the IC50 is > 54 µM (inactive).

Consider `Cc1ccccc1C(=O)Nc1ccc2c(C#N)c3nc4ccccc4nc3n2c1`, for which the IC50 was 1.05 µM.

Take `Cc1nc2c(c(=O)n1CCC1=CCCCC1)c1nc3ccccc3nc1n2/N=C/c1ccco1`: the IC50 is > 54 µM (inactive).

As for `COC(=O)c1c(NC(=O)c2cnccn2)sc2c1CCC2`, the IC50 was > 54 µM (inactive).

Take `O=C(Nc1nnc(-c2ccco2)s1)C1CC1`: the IC50 was > 54 µM (inactive).

With `CN(C)C(=O)/C(C#N)=C\c1cc(Br)c(Sc2ccc(Cl)cc2)o1`, the IC50 was > 54 µM (inactive).

On to `Fc1ccccc1NC(=S)N1CCN(Cc2ccc3c(c2)OCO3)CC1`, for which the IC50 is > 54 µM (inactive).

Consider `N=C1/C(=C/c2cccn2-c2cccc([N+](=O)[O-])c2)C(=O)N=C2SC=CN12`, for which the IC50 is 12.5 µM.

In the case of `O=c1c2ccccc2nc2n1CCC2`, the 50% inhibitory concentration (IC50) is 0.52 µM.

Regarding `CCCCOc1ccc(C(=O)NCCC(=O)NCCCC(=O)OCC)cc1`, the IC50 is > 54 µM (inactive).

`O=C(/C=C/Nc1cccc(F)c1)c1ccco1`: the IC50 is > 54 µM (inactive).

`C=C(C)Cn1c(Sc2nnc(C)s2)nc2c1c(=O)[nH]c(=O)n2C`: the IC50 was > 54 µM (inactive).

As for `COc1cccc(CNC(=O)C2CCN(S(=O)(=O)N3CCCCC3)CC2)c1`, the IC50 is > 54 µM (inactive).

Turning to `CCOC(=O)c1c(C)oc2c1c(C(c1ccncc1)N1CCOCC1)c(O)c1ccccc12` (centres undefined), the concentration for half-maximal inhibition (IC50) was 0.87 µM.

Consider `Nc1c(C(=O)NC2CC2)sc2nc3c(c(-c4ccco4)c12)CC/C3=C/c1ccco1`, for which the IC50 was > 54 µM (inactive).

Turning to `COC(=O)c1ccc(-c2nc3cc(Cl)c(N)cc3s2)cc1`, the IC50 was > 54 µM (inactive).

Regarding `O=c1c2ccccc2nc(/C=C/c2cccnc2)n1CCc1ccccc1`, the 50% inhibitory concentration (IC50) was 0.63 µM.

As to `C=CCOC(=O)/C(=C/c1ccco1)NC(=O)/C=C/c1ccccc1`, the IC50 is > 54 µM (inactive).

As for `O=C1CSC(c2cccnc2)N1c1ccc(Cl)cc1` (centres undefined), the IC50 was > 54 µM (inactive).

Take `Cc1cc(C)n(Cc2cccc(F)c2)c(=O)c1C#N`: the IC50 is > 54 µM (inactive).

As to `CCOC(=O)Cc1csc(NC(=O)CSc2nnnn2-c2ccc(C)c(C)c2)n1`, the IC50 was > 54 µM (inactive).

As to `COc1ccc2[nH]c(=O)c(CN(C(=O)C3CCCO3)c3ccc(C)c(C)c3)cc2c1` (centres undefined), the IC50 was > 54 µM (inactive).

Consider `O=S(=O)(c1ccccc1F)N1CCN(Cc2nc3ccccc3[nH]2)CC1`, for which the IC50 was > 54 µM (inactive).

As to `CCS(=O)(=O)c1ccc(S(=O)(=O)CC)s1`, the IC50 is > 54 µM (inactive).

Consider `CC1(c2ccc(Cl)cc2Cl)OCC(Cn2ccnc2)O1` (centres undefined), for which the IC50 was > 54 µM (inactive).

`CCC(CC)NC(=O)COC(=O)c1cc(Br)ccc1Cl`: the IC50 is > 54 µM (inactive).

Take `CN1CCCCC1c1ccc(-c2cccnc2)nc1` (centres undefined): the IC50 entry was “inactive”.

As for `O=C(Cc1c(Cl)cccc1Cl)OCC(=O)N1CCc2ccccc2C1`, the IC50 was > 54 µM (inactive).

`Cn1c2ccccc2c(=O)c2c(=O)n(C3CCCCCC3)c(C3CCCCC3)nc21`: the 50% inhibitory concentration (IC50) was 2.27 µM.

As for `Cc1sc(NC(=O)c2sc3nc4c(C)cccc4cc3c2N)c(C#N)c1C`, the IC50 is 0.95 µM.

For the compound `O=C(NN1C(=O)C2C(C1=O)C1C=CC2C12CC2)c1ccc(Cl)cc1` (centres undefined), the IC50 was > 54 µM (inactive).

In the case of `N=C1/C(=C\c2ccc(-c3cccc(C(=O)O)c3)o2)C(=O)N=C2SC=C(c3ccccc3)N12`, the half-maximal inhibitory concentration (IC50) is 4.64 µM.

Turning to `COc1cc2c(cc1OC)CN(CC(=O)Nc1ccc(C#N)cc1)CC2`, the IC50 was > 54 µM (inactive).

For `COc1ccc(-c2cc(C(F)(F)F)nc(N3CCOCC3)n2)cc1OC`, the IC50 was > 54 µM (inactive).

With `Brc1ccccc1`, the IC50 is > 54 µM (inactive).

For `CN(C)c1ccc(/C=c2\sc3nc(-c4ccccc4)nn3c2=O)cc1`, the IC50 is 5.15 µM.

Turning to `CCOc1cc(/C=C2\C(=O)N(c3nc(-c4ccc(Br)cc4)cs3)N=C2c2ccccc2)ccc1O`, the IC50 was 0.75 µM.

`COc1cccc(CNc2nc3ccc(C)cc3n3cnnc23)c1`: the IC50 was > 54 µM (inactive).

Turning to `Cc1ccc(C2C3=C(Nc4[nH]n(-c5ccccc5)c(=O)c42)c2ccccc2C3=O)cc1` (centres undefined), the half-maximal inhibitory concentration (IC50) is 0.74 µM.

For `O=C(O)c1ccc2ncsc2c1`, the half-maximal inhibitory concentration (IC50) is 0.52 µM.

`CN1C(=O)C(=Cc2sc(=O)n(-c3ccccc3)c2N2CCCCC2)C(=O)N(C)C1=O`: the IC50 was > 54 µM (inactive).

As to `COc1ccc(CCNC(=O)c2ccc(Cl)cc2Cl)cc1OC`, the IC50 was > 54 µM (inactive).

On to `O=S(=O)(c1ccc(NC(=S)NCc2cccnc2)cc1)N1CCCCC1`, for which the IC50 was > 54 µM (inactive).

On to `O=C(N/N=C/c1ccco1)c1ccc(N2CCCC2=O)cc1`, for which the IC50 was > 54 µM (inactive).

Take `COC(=O)CSc1nc(C)c(C)c(C)c1C(N)=O`: the IC50 was > 54 µM (inactive).

With `COc1ccc(N2C(=O)/C(=C/C=C/c3ccccc3[N+](=O)[O-])C(=O)NC2=S)cc1`, the IC50 is 1.05 µM.

In the case of `O=C(Nc1ccccn1)c1ccc([N+](=O)[O-])cc1Cl`, the IC50 was > 54 µM (inactive).

By IC50 is commonly meant the concentration that inhibits the measured activity by half.

The record behind these values is PubChem BioAssay AID1418 (Emory University Molecular Libraries Screening Center, 2008).
